The subject of one test is DLD-1 BRCA2(−/−) cells. Kind of test: Cell growth inhibition assay (CellTiter-Glo), DLD-1 BRCA2(−/−). It is filed as cell-based. The following applies: Homo sapiens, DLD-1, 168 h; 200 cells/well, 7 days, CellTiter Glo 2.0; read-out: DLD-1 BRCA2(−/−) pEC50 (converted). On the procedure:
(§1) Cell proliferation was measured through the cell viability assay using DLD-1 BRCA2(−/−) and parental isogenic pair and MDA-MB-436 (mutated BRCA1) cell lines. The CellTiter-Glo (CTG) based cell viability assay is designed to determine the number of viable cells in the culture because of compound effect, by quantifying ATP, which indicates the presence of metabolically active cells.
(§2) DLD-1 BRCA2(−/−) and parental isogenic pair were cultured in RPMI 1640 supplemented with […] (FBS), and […] cells were cultured in DMEM supplemented with 10% FBS. Both were cultured at 37° C. with […]. Invention compounds were distributed to the 384 well plate (Corning, 3764) using Echo acoustic liquid handler to form a 1:3 serially diluted final concentration with top dose of 10 or 30 μM. The cells were seeded into the plate in the density of 50 cells/well (DLD-1 parental), 200 cells/well (DLD-1 BRCA2−/−), or 500 cells/well (MDA-MB-436). After a short spun, the cells were cultured in a well moisturized incubator at 37° C. with 5% CO2 for 7 days without disturbance. The cell viability was measured by CellTiter Glo 2.0 assay kit (Promega, G9243), and growth inhibition rate was calculated and plotted against final compound concentration, and the data were fitted in Xfit to generate IC50 values.
In general terms: Cellular ATP, detected with luciferase, serves as a proxy for viable cell number.

The target in a further test is T1, PARP1 (Homo sapiens, UniProt P09874).
T1 construct: made in house
T1 sequence (P09874 whole entry): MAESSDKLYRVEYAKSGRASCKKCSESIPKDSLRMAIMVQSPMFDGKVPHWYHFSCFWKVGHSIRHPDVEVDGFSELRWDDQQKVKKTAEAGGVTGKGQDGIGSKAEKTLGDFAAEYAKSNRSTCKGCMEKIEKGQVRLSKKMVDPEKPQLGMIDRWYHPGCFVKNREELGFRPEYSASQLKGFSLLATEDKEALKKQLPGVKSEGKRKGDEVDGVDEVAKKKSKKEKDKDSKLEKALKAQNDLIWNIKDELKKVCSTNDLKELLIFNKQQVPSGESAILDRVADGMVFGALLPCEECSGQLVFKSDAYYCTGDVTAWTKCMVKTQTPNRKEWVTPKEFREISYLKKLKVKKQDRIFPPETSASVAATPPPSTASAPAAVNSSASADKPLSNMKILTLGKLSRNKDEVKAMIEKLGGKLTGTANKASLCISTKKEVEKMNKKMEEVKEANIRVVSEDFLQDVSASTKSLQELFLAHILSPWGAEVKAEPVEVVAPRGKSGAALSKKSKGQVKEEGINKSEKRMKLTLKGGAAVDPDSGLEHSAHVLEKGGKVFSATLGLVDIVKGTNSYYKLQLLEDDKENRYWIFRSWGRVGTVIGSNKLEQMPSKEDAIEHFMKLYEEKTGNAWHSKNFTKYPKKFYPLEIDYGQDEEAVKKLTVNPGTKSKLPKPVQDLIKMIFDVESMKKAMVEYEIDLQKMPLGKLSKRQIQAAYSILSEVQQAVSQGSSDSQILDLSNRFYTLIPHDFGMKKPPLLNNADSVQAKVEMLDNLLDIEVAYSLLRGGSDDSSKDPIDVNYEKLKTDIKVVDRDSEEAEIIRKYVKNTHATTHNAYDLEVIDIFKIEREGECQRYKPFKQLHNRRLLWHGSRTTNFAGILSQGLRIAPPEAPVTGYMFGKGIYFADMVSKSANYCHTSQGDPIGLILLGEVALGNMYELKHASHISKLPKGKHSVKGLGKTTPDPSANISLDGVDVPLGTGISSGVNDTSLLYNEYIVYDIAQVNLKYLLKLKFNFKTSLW
Kind of test: Biochemical fluorescent polarization (FP) assay, displacement of PARPi-FL, PARP1. It is filed as binding. The following applies: 20 nM protein, 3 nM PARPi-FL, 4 h at room temperature; for IC50: read-out: FP PARP1 pIC50 (converted). On the procedure: (§3) Compounds were characterized using an assay measuring the displacement of a commercially available fluorescently labeled PARP 1/2 inhibitor (PARPi-FL, Tocris Biosciences, #6461) as exemplified in assays performed in WO2014/064149 and WO2021/013735A1. The assay was performed utilizing the following method: Compounds were dissolved in DMSO an Echo550 liquid handler was utilized to make serial dilations in the desired concentration range in Optiplate-384F plates. 100% DMSO was used for the high (with protein) and low (without protein) control samples. 20 nL of compound or DMSO alone was added to individual assay plate wells. PARP1 and PARP2 protein were expressed, purified, and diluted in assay buffer containing 50 mM Tris pH 8.0, 0.001% Triton X-100, 10 mM MgCl2, 150 mM NaCl to a final concentration of 20 nM. The PARPi-FL was then added at a final concentration of 3 nM. The assay plate was centrifuged at 1000 rpm for 1 min and incubated for 4 h at room temperature. […] [formula]

A further test addresses T2, PARP2 (Homo sapiens, UniProt Q9UGN5).
T2 construct: made in house
Kind of test: Biochemical fluorescent polarization (FP) assay, displacement of PARPi-FL, PARP2. Type of test: binding. Particulars: 20 nM protein, 3 nM PARPi-FL, 4 h at room temperature; read-out: FP PARP2 pIC50 (converted). On the procedure: as §3

For test [1], the system named is MDA-MB-436 (mutated BRCA1) cells. Kind of test: Cell growth inhibition assay (CellTiter-Glo), MDA-MB-436. It is filed as cell-based. Particulars: Homo sapiens, MDA-MB-436, 168 h, 500 cells/well, 7 days, CellTiter Glo 2.0; read-out: MDA-MB-436 pEC50 (converted). On the procedure:
as §1, §2

T2 sequence (Q9UGN5 whole entry): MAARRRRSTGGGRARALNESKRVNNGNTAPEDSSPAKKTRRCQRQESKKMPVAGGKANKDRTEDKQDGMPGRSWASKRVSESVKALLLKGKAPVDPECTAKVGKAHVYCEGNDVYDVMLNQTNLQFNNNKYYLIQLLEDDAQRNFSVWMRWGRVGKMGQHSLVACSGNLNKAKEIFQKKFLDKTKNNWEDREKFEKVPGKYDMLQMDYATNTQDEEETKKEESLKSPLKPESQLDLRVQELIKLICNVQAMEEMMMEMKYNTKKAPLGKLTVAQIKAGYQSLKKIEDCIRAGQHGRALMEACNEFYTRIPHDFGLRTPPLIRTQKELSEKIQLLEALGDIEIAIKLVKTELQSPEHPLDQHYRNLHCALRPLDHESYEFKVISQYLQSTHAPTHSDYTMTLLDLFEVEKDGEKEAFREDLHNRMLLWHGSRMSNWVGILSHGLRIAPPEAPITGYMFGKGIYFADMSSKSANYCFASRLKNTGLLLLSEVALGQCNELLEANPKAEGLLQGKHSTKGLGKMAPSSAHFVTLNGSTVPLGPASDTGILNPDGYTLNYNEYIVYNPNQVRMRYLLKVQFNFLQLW

Regarding `CCc1cc2ncc(CN3CCN(c4ccc(F)cc4C#N)CC3)cc2[nH]c1=O` [Example 40], the EC50 was 1 nM with DLD-1 BRCA2(−/−) cells and 0.794 nM in test [1]. The IC50 on PARP1 was 6.31 nM; at PARP2 it was 12600 nM.
Take `Cc1cc2ncc(CN3CCN(c4cc(F)c(F)cc4C#N)CC3)cc2[nH]c1=O` [Example 53]: the EC50 in the test on DLD-1 BRCA2(−/−) cells is 6.31 nM; in test [1], 5.01 nM. The IC50 on PARP1 is 12.6 nM.
Turning to `Cc1nc2ccc(CN3CCN(c4ccc(C#N)nc4F)CC3)c(F)c2[nH]c1=O` [Example 74], the EC50 was 20 nM with DLD-1 BRCA2(−/−) cells and 31.6 nM in test [1]. Also, the IC50 on PARP1 was 15.8 nM.
`CCc1cc2ncc(CN3CCN(c4ccc(F)cn4)CC3)cc2[nH]c1=O` [Example 4]: the EC50 (with DLD-1 BRCA2(−/−) cells; in test [1]) was 2 nM in each case.
For `[2H]C([2H])(c1cnc2cc(C(F)F)c(=O)[nH]c2c1)N1CCN(c2ccc(C#N)cn2)CC1` [Example 63], the EC50 in the test on DLD-1 BRCA2(−/−) cells was 1.58 nM; in test [1] it was 1.26 nM. Moreover, the IC50 is 15.8 nM at PARP1 and 794 nM at PARP2.
As to `CCc1cc2ncc(CN3CCN(c4ccc(C#N)nc4)[C@@H]4C[C@@H]43)cc2[nH]c1=O` (single isomer, unassigned) [Example 15], the EC50 with DLD-1 BRCA2(−/−) cells is 7.94 nM; in test [1] it was 5.01 nM. The IC50 at PARP1 was 5.01 nM; at PARP2 it was 10000 nM.
Consider `Cc1c(C(F)F)c2ncc(CN3CCN(c4ccc(C#N)cn4)CC3)cc2[nH]c1=O` [Example 82, 6-(4-((8-(difluoromethyl)-7-methyl-6-oxo-5,6-dihydro-1,5-naphthyridin-3-yl)methyl)piperazin-1-yl)nicotinonitrile], for which the EC50 in the test with DLD-1 BRCA2(−/−) cells is 100 nM; in test [1] it was 39.8 nM. In addition, the IC50 at PARP1 is 31.6 nM.
Consider `[2H]C([2H])(c1cnc2cc(C)c(=O)[nH]c2c1)N1CCN(c2ccc(C#N)cn2)CC1` [Example 37], for which the EC50 with DLD-1 BRCA2(−/−) cells was 3.16 nM; in test [1] it was 1.58 nM. In addition, the “FP PARP1 pIC50” value at PARP1 came to 8.5. For the same compound, the IC50 at PARP2 was over 100000 nM.
In the case of `Cc1cc2ncc(CN3CCN(c4cc(F)c(C#N)cc4F)CC3)cc2[nH]c1=O` [Example 13], the EC50 in the test on DLD-1 BRCA2(−/−) cells is 5.01 nM; in test [1], 3.98 nM. The IC50 on PARP1 is 5.01 nM; at PARP2, over 100000 nM.
For `Cc1cc2ncc(CN3CCN(c4ccc(C#N)nc4Cl)CC3)cc2[nH]c1=O` [Example 55], the EC50 is 1.26 nM in the test with DLD-1 BRCA2(−/−) cells and 1 nM in test [1]. The IC50 on PARP1 was 7.94 nM; at PARP2, over 100000 nM.
Take `N#Cc1ccc(N2CCN(Cc3cnc4cc(C5CC5)c(=O)[nH]c4c3)CC2)nc1` [Example 17]: the EC50 in the test on DLD-1 BRCA2(−/−) cells is 2.51 nM; in test [1], 2 nM.
Take `CCc1cc2ncc(CN3CCN(c4ncc(C#N)cc4F)CC3)cc2[nH]c1=O` [Example 54]: the EC50 was 63.1 nM in the test on DLD-1 BRCA2(−/−) cells and 79.4 nM in test [1]. Moreover, at PARP1, the IC50 was 63.1 nM.
For the compound `N#Cc1ccc(N2CCN(Cc3cnc4cc(Cl)c(=O)[nH]c4c3)CC2)c(F)c1` [Example 76], the EC50 (in the test on DLD-1 BRCA2(−/−) cells; in test [1]) was 5.01 nM in each case. The IC50 on PARP1 was 63.1 nM.
On to `Cc1cc2ncc(CN3CCN(c4ccc(Cl)cc4C#N)CC3)cc2[nH]c1=O` [Example 51], for which the results for the EC50 (with DLD-1 BRCA2(−/−) cells; in test [1]) were 3.98 nM and 2.51 nM, respectively. In addition, the IC50 on PARP1 is 20 nM.
The like results for `Cc1nc2c(F)c(F)c(CN3CCN(c4ccc(C#N)cn4)CC3)cc2[nH]c1=O` [Example 72] were, in that order, 63.1 nM, 39.8 nM and 15.8 nM.
Consider `N#Cc1ccc(N2CCN(Cc3cnc4cc(C(F)F)c(=O)[nH]c4c3)CC2)c(C(F)F)c1` [Example 80], for which the EC50 in the test on DLD-1 BRCA2(−/−) cells is 1.26 nM; in test [1], 1 nM. Besides, the IC50 at PARP1 is 15.8 nM.
As for `Cc1nc2ccc(CN3CCN(c4ccc(C#N)cn4)CC3)c(F)c2[nH]c1=O` [Example 70], the EC50 in the test with DLD-1 BRCA2(−/−) cells was 25.1 nM; in test [1] it was 31.6 nM. Also, the IC50 on PARP1 is 10 nM.
Regarding `N#Cc1ccc(N2CCN(Cc3cnc4cc(C(F)F)c(=O)[nH]c4c3)CC2)c(Cl)n1` [Example 81], the EC50 (with DLD-1 BRCA2(−/−) cells; in test [1]) was 0.631 nM each time. Moreover, the IC50 on PARP1 was 10 nM.
`Cc1cc(C#N)ccc1N1CCN(Cc2cnc3cc(C(F)F)c(=O)[nH]c3c2)CC1` [Example 75]: the EC50 in the test on DLD-1 BRCA2(−/−) cells is 0.631 nM; in test [1], 0.501 nM. Also, on PARP1, the IC50 is 25.1 nM.
In the case of `CCc1nc2cc(F)c(CN3CCN(c4ccc(C#N)cn4)CC3)cc2[nH]c1=O` [Example 12, 6-{4-[(2-ethyl-7-fluoro-3-oxo-4H-quinoxalin-6-yl)methyl]piperazin-1-yl}pyridine-3-carbonitrile], the EC50 (in the test on DLD-1 BRCA2(−/−) cells; in test [1]) was 10 nM in each case. Moreover, the IC50 on PARP1 is 7.94 nM.
`C#Cc1cc2ncc(CN3CCN(c4ccc(C#N)nc4)CC3)cc2[nH]c1=O` [Example 1, 5-{4-[(7-ethynyl-6-oxo-5H-1,5-naphthyridin-3-yl)methyl]piperazin-1-yl}pyridine-2-carbonitrile]: the EC50 (in the test on DLD-1 BRCA2(−/−) cells; in test [1]) was 63.1 nM in each case. The IC50 on PARP1 is 15.8 nM.
In the case of `N#Cc1ccc(N2CCN(Cc3cnc4cc(C5CC5)c(=O)[nH]c4c3)CC2)c(F)c1` [Example 46], the EC50 with DLD-1 BRCA2(−/−) cells is 2 nM; in test [1], 1.58 nM. In addition, at PARP1, the IC50 is 10 nM.
In the case of `CCc1cc2ncc(CN3CCN(c4ncc(F)cc4C#N)CC3)cc2[nH]c1=O` [Example 56], the results for the EC50 (in the test on DLD-1 BRCA2(−/−) cells; in test [1]) were 100 nM and 63.1 nM, respectively. At PARP1, the IC50 is 15.8 nM.
Regarding `Cc1cc2ncc(CN3CCN(c4ccc(C#N)cc4C#N)CC3)cc2[nH]c1=O` [Example 50], the EC50 in the test with DLD-1 BRCA2(−/−) cells was 2 nM; in test [1] it was 1.58 nM. Further, at PARP1, the IC50 is 25.1 nM.
Take `Cc1nc2c(F)cc(CN3CCN(c4ccc(C#N)cn4)CC3)cc2[nH]c1=O` [Example 49, 6-{4-[(8-fluoro-2-methyl-3-oxo-4H-quinoxalin-6-yl)methyl]piperazin-1-yl}pyridine-3-carbonitrile]: the EC50 in the test on DLD-1 BRCA2(−/−) cells is 10 nM; in test [1] it was 12.6 nM. Moreover, the IC50 at PARP1 is 10 nM.
Regarding `O=c1[nH]c2cc(CN3CCN(c4ccc(F)cn4)CC3)cnc2cc1Cl` [Example 47, 3-chloro-7-{[4-(5-fluoropyridin-2-yl)piperazin-1-yl]methyl}-1H-1,5-naphthyridin-2-one], the results for the EC50 (in the test on DLD-1 BRCA2(−/−) cells; in test [1]) were 2.51 nM and 7.94 nM, respectively. For the same compound, the IC50 at PARP1 was 10 nM.
Turning to `CCc1cc2ncc(CN3CCN(c4ccc(C#N)cc4F)CC3)cc2[nH]c1=O` [Example 45], the EC50 in the test on DLD-1 BRCA2(−/−) cells is 1.26 nM; in test [1] it was 1 nM.
Consider `N#Cc1ccc(N2CCN(Cc3ccc4cc(Cl)c(=O)[nH]c4c3F)CC2)nc1` [Example 83, 6-{4-[(3-chloro-8-fluoro-2-oxo-1H-quinolin-7-yl)methyl]piperazin-1-yl}pyridine-3-carbonitrile], for which the figures for the EC50 (in the test with DLD-1 BRCA2(−/−) cells; in test [1]) were 10 nM and 6.31 nM, respectively. For the same compound, the IC50 at PARP1 is 10 nM.
In the case of `N#Cc1ccc(N2CCN(Cc3cnc4cc(C(F)F)c(=O)[nH]c4c3)CC2)c(F)n1` [Example 62], the results for the EC50 (in the test on DLD-1 BRCA2(−/−) cells; in test [1]) were 1.58 nM and 1.26 nM, respectively. Further, the IC50 on PARP1 is 63.1 nM.
Regarding `CCc1cc2ncc(CN3CCN(c4cnc(Cl)cc4C#N)CC3)cc2[nH]c1=O` [Example 65], the EC50 was 3.16 nM with DLD-1 BRCA2(−/−) cells and 2.51 nM in test [1].
Consider `Cc1cc2ccc(CN3CCN(c4ccc(C#N)cn4)CC3)c(F)c2[nH]c1=O` [Example 71, 6-{4-[(8-fluoro-3-methyl-2-oxo-1H-quinolin-7-yl)methyl]piperazin-1-yl}pyridine-3-carbonitrile], for which the results for the EC50 (in the test with DLD-1 BRCA2(−/−) cells; in test [1]) were 12.6 nM and 15.8 nM, respectively. In addition, the IC50 at PARP1 is 10 nM.
Turning to `Cc1nc2ccc(CN3CCN(c4ccc(C#N)nc4Cl)CC3)c(F)c2[nH]c1=O` [Example 73], the figures for the EC50 (in the test with DLD-1 BRCA2(−/−) cells; in test [1]) were 20 nM and 15.8 nM, respectively. For the same compound, the IC50 at PARP1 was 25.1 nM.

The values are drawn from US12384780B2, “PARP1 inhibitors and uses thereof” (XinThera, Inc., priority 2022, dated 2025).
